According to article PMC9090415, “Discovery of small molecule inhibitors of Plasmodium falciparum apicoplast DNA polymerase” (Journal of Enzyme Inhibition and Medicinal Chemistry, 2022):

Biological target: P. falciparum apicoplast DNA polymerase (Pf-apPOL) (Plasmodium falciparum, UniProt Q8ILY1)
Assay: Fluorescence-based high-throughput DNA polymerase assay (molecular beacon), primary screen and dose-response;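 as to % inhibition ApPOL 90': test concentration in µM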;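 as to % inhibition Apol 40': compound concentration given in µM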;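 as to % inhibition apPOL 180': test concentration in µM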
Type: biochemical
Conditions: for DNA Pol: 90 min, 10 µM
Procedure, shortened: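 Single-point screening used 10 µM compound with 20 nM polymerase, 20 nM hairpin substrate and 6 µM dNTPs for 90 min at 25 °C. Confirmatory titrations (2.5–80 µM) followed fluorescence at three times, and IC50 was derived from a fit including a cooperativity term n.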

[1] = "DNA Pol" of the 186 hits list (screen value)

Chain of P. falciparum apicoplast DNA polymerase (Pf-apPOL) (Q8ILY1 entry or part of it): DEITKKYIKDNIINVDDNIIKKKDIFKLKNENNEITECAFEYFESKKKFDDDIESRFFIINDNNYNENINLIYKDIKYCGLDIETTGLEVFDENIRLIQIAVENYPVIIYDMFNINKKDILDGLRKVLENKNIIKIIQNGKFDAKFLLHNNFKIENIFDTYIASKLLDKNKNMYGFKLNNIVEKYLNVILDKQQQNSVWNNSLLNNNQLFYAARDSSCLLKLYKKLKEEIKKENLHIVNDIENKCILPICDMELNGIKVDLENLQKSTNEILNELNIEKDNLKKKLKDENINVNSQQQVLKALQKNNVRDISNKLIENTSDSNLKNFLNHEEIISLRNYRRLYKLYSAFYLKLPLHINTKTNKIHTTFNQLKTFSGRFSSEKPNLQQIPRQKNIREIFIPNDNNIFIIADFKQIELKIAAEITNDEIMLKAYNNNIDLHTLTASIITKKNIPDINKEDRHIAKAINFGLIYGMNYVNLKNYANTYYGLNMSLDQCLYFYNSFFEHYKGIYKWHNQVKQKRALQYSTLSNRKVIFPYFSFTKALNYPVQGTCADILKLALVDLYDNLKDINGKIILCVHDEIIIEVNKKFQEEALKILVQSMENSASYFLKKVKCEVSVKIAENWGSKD

`CCOC(=O)C1=C2c3cc(OC)c(OC)cc3CC(C)(C)N2C(=O)C1=O` [KU0193659] was tested, and the “DNA Pol” value [1] was 50, the “% inhibition Apo pol 10'” value (DRC-1, concentration 2.5) was 0.5902% and the “% inhibition Apo pol 10'” value (DRC-1, concentration 5) was 6.068%. For the same compound, the “% inhibition Apo pol 10'” value (DRC-1, concentration 10) was 24.2091%, the “% inhibition Apo pol 10'” value (DRC-1, concentration 20) was 48.7622% and the “% inhibition Apo pol 10'” value (DRC-1, concentration 40) was 76.2717%. For the same compound, the “% inhibition Apo pol 10'” value (DRC-1, concentration 80) was 83.8971%, the “% inhibition Apol 90'” value (DRC-1, concentration 2.5) was 2.413% and the “% inhibition Apol 90'” value (DRC-1, concentration 5) was 7.311%. The “% inhibition Apol 90'” value (DRC-1, concentration 10) was 23.2588%, the “% inhibition Apol 90'” value (DRC-1, concentration 20) was 44.3755% and the “% inhibition Apol 90'” value (DRC-1, concentration 40) was 72.221%. For the same compound, the “% inhibition Apol 90'” value (DRC-1, concentration 80) was 80.3053%, the “% inhibition apPOL 180'” value (DRC-1, concentration 2.5) was 2.939% and the “% inhibition apPOL 180'” value (DRC-1, concentration 5) was 8.013%. For the same compound, the “% inhibition apPOL 180'” value (DRC-1, concentration 10) was 23.6538%, the “% inhibition apPOL 180'” value (DRC-1, concentration 20) was 40.1403% and the “% inhibition apPOL 180'” value (DRC-1, concentration 40) was 67.3971%. The “% inhibition apPOL 180'” value (DRC-1, concentration 80) was 76.7403%, the “% inhibition Apo pol 5'” value (DRC-2, concentration 2.5) was -4% and the “% inhibition Apo pol 5'” value (DRC-2, concentration 5) was -4.49%. The “% inhibition Apo pol 5'” value (DRC-2, concentration 10) was 16%, the “% inhibition Apo pol 5'” value (DRC-2, concentration 20) was 26% and the “% inhibition Apo pol 5'” value (DRC-2, concentration 40) was 41%. For the same compound, the “% inhibition Apo pol 5'” value (DRC-2, concentration 80) was 41%, the “% inhibition Apol 40'” value (DRC-2, concentration 2.5) was -2.41% and the “% inhibition Apol 40'” value (DRC-2, concentration 5) was -3%. For the same compound, the “% inhibition Apol 40'” value (DRC-2, concentration 10) was 21%, the “% inhibition Apol 40'” value (DRC-2, concentration 20) was 39% and the “% inhibition Apol 40'” value (DRC-2, concentration 40) was 57%. The “% inhibition Apol 40'” value (DRC-2, concentration 80) was 57%, the “% inhibition ApPOL 90'” value (DRC-2, concentration 2.5) was -1.64% and the “% inhibition ApPOL 90'” value (DRC-2, concentration 5) was -0.605%. The “% inhibition ApPOL 90'” value (DRC-2, concentration 10) was 22%, the “% inhibition ApPOL 90'” value (DRC-2, concentration 20) was 43% and the “% inhibition ApPOL 90'” value (DRC-2, concentration 40) was 64%. For the same compound, the “% inhibition ApPOL 90'” value (DRC-2, concentration 80) was 62%, the “% inhibition apPOL 180'” value (DRC-2, concentration 2.5) was -2% and the “% inhibition apPOL 180'” value (DRC-2, concentration 5) was 1.35%. The “% inhibition apPOL 180'” value (DRC-2, concentration 10) was 23%, the “% inhibition apPOL 180'” value (DRC-2, concentration 20) was 46% and the “% inhibition apPOL 180'” value (DRC-2, concentration 40) was 68%. For the same compound, the “% inhibition apPOL 180'” value (DRC-2, concentration 80) was 66% and the “DNA Pol” value (primary screen value, DNA Pol) was 50.

In the case of `CC1(C)CC(=O)C2=C(C1)OC1=C(C(=O)CC(C)(C)C1)C2c1ccc(O)cc1` [KU0194226], the “DNA Pol” value [1] is reported as 31, the “% inhibition Apo pol 10'” value (DRC-1, concentration 2.5) is reported as 1.4755% and the “% inhibition Apo pol 10'” value (DRC-1, concentration 5) is reported as 6.619%. For the same compound, the “% inhibition Apo pol 10'” value (DRC-1, concentration 10) was 20.9207%, the “% inhibition Apo pol 10'” value (DRC-1, concentration 20) was 40.5777% and the “% inhibition Apo pol 10'” value (DRC-1, concentration 40) was 75.7382%. For the same compound, the “% inhibition Apo pol 10'” value (DRC-1, concentration 80) was 84.2344%, the “% inhibition Apol 90'” value (DRC-1, concentration 2.5) was 3.436% and the “% inhibition Apol 90'” value (DRC-1, concentration 5) was 6.7212%. For the same compound, the “% inhibition Apol 90'” value (DRC-1, concentration 10) was 20.1854%, the “% inhibition Apol 90'” value (DRC-1, concentration 20) was 38.6225% and the “% inhibition Apol 90'” value (DRC-1, concentration 40) was 72.348%. For the same compound, the “% inhibition Apol 90'” value (DRC-1, concentration 80) was 80.6214%, the “% inhibition apPOL 180'” value (DRC-1, concentration 2.5) was 2.939% and the “% inhibition apPOL 180'” value (DRC-1, concentration 5) was 5.25%. For the same compound, the “% inhibition apPOL 180'” value (DRC-1, concentration 10) was 19.133%, the “% inhibition apPOL 180'” value (DRC-1, concentration 20) was 35.7891% and the “% inhibition apPOL 180'” value (DRC-1, concentration 40) was 67.9328%. For the same compound, the “% inhibition apPOL 180'” value (DRC-1, concentration 80) was 76.0012%, the “% inhibition Apo pol 5'” value (DRC-2, concentration 2.5) was 2.55% and the “% inhibition Apo pol 5'” value (DRC-2, concentration 5) was 2.7%. For the same compound, the “% inhibition Apo pol 5'” value (DRC-2, concentration 10) was 17%, the “% inhibition Apo pol 5'” value (DRC-2, concentration 20) was 21% and the “% inhibition Apo pol 5'” value (DRC-2, concentration 40) was 37%. For the same compound, the “% inhibition Apo pol 5'” value (DRC-2, concentration 80) was 35%, the “% inhibition Apol 40'” value (DRC-2, concentration 2.5) was 5.61% and the “% inhibition Apol 40'” value (DRC-2, concentration 5) was -0.353%. The “% inhibition Apol 40'” value (DRC-2, concentration 10) was 23%, the “% inhibition Apol 40'” value (DRC-2, concentration 20) was 31% and the “% inhibition Apol 40'” value (DRC-2, concentration 40) was 52%. The “% inhibition Apol 40'” value (DRC-2, concentration 80) was 59%, the “% inhibition ApPOL 90'” value (DRC-2, concentration 2.5) was 6% and the “% inhibition ApPOL 90'” value (DRC-2, concentration 5) was -4.67%. For the same compound, the “% inhibition ApPOL 90'” value (DRC-2, concentration 10) was 27%, the “% inhibition ApPOL 90'” value (DRC-2, concentration 20) was 34% and the “% inhibition ApPOL 90'” value (DRC-2, concentration 40) was 57%. For the same compound, the “% inhibition ApPOL 90'” value (DRC-2, concentration 80) was 65%, the “% inhibition apPOL 180'” value (DRC-2, concentration 2.5) was 5.45% and the “% inhibition apPOL 180'” value (DRC-2, concentration 5) was -63%. For the same compound, the “% inhibition apPOL 180'” value (DRC-2, concentration 10) was 27%, the “% inhibition apPOL 180'” value (DRC-2, concentration 20) was 36% and the “% inhibition apPOL 180'” value (DRC-2, concentration 40) was 61%. For the same compound, the “% inhibition apPOL 180'” value (DRC-2, concentration 80) was 70% and the “DNA Pol” value (primary screen value, DNA Pol) was 31.
